In US11845752B2, “Substituted imidazo[1,5-a]pyrazines for the treatment of hepatitis B” (ALIGOS THERAPEUTICS, INC., priority 2020, dated 2023) one finds EC50 data, which are given here for 27 compounds.

The term EC50 denotes the concentration that produces a half-maximal response.

One assay relates to HBV. Briefly: HBV-DNA antiviral assay using HepG2.117 cells (intracellular HBV DNA by qPCR). Type of assay: cell-based, HBV genotype D. The note with it: HBV DNA inhibition, 3 days incubation, read-out: EC50. A digest of the protocol:
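HepG2.117 cells (stably integrated genotype D HBV, Tet-off) seeded without doxycycline to induce pgRNA, then treated next day with 9 concentrations (4-fold dilutions, 2% DMSO) for 3 days at 37 °C. Intracellular HBV DNA quantified by qPCR against standard curve, viability by ATP content; inhibition relative to DMSO control, EC50/EC90/CC50 by non-linear regression.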
For orientation: Quantitative PCR measures a nucleic acid by following its amplification.
As to `COc1nccc(-c2ccccc2CNC(=O)c2c3n(c(=O)n2-c2ccc(OC4CC4)cc2)CC(C)N(C(=O)c2ccc(Br)c(C(F)(F)F)c2)C3)n1` (single isomer, unassigned) [Compound 38b], the EC50 was less than 50 nM.

Regarding `CC1Cn2c(c(C(=O)NCc3ccccc3-c3ncccn3)n(-c3ccc(OC4CC4)cc3)c2=O)CN1C(=O)c1ccc(Br)c(Cl)c1` (single isomer, unassigned) [Compound 3b, (6R*)-7-(4-bromo-3-chloro-benzoyl)-2-[4-(cyclopropoxy)phenyl]-6-methyl-3-oxo-N-[(2-pyrimidin-2-ylphenyl)methyl]-6,8-dihydro-5H-imidazo[1,5-a]pyrazine-1-carboxamide], the EC50 was in the range of 50 to 500 nM.

`CC1Cn2c(c(C(=O)NCc3c(F)cccc3-c3cccc(N)n3)n(-c3ccc(OC4CC4)cc3)c2=O)CN1C(=O)c1ccc(Br)c(Cl)c1` (single isomer, unassigned) [Compound 35b]: the EC50 was less than 50 nM.

Turning to `C#Cc1cc(C(=O)N2Cc3c(C(=O)NCc4ccccc4-c4ccncn4)n(-c4ccc(OC5CC5)cc4)c(=O)n3CC2C)ccc1Br` (single isomer, unassigned) [Compound 20a], the EC50 fell in the range of 500 to 5000 nM.

In the case of `CNc1cc(-c2ccccc2CNC(=O)c2c3n(c(=O)n2-c2ccc(OC4CC4)cc2)CC(C)N(C(=O)c2ccc(Br)c(C(F)(F)F)c2)C3)ncn1` (single isomer, unassigned) [Compound 40b], the EC50 is less than 50 nM.

With `CC1Cn2c(c(C(=O)NCc3ccccc3-c3cc[nH]n3)n(-c3ccc(OC4CC4)cc3)c2=O)CN1C(=O)c1ccc(Br)c(Cl)c1` (single isomer, unassigned) [Compound 51b], the EC50 was less than 50 nM.

For `CC1Cn2c(c(C(=O)NCc3ccccc3-c3cc(N)cnn3)n(-c3ccc(OC4CC4)cc3)c2=O)CN1C(=O)c1ccc(Br)c(Cl)c1` (single isomer, unassigned) [Compound 42b], the EC50 is 50 to 500 nM.

On to `CC1Cn2c(c(C(=O)NCc3ccccc3-c3cc(N)cnn3)n(-c3ccc(OC4CC4)cc3)c2=O)CN1C(=O)c1ccc(Br)c(C(F)(F)F)c1` (single isomer, unassigned) [Compound 43a], for which the EC50 lay within 500 to 5000 nM.

Take `CC1Cn2c(c(C(=O)NCc3ccccc3-c3ccncn3)n(-c3ccc4oc(N)nc4c3)c2=O)CN1C(=O)c1ccc(Br)c(Cl)c1` (single isomer, unassigned) [Compound 92b]: the EC50 was 500 to 5000 nM.

On to `CC1Cn2c(c(C(=O)NCc3ccccc3-c3ccn(CC(F)(F)F)n3)n(-c3ccc(N4CC5(CN(C)C5)C4)cc3)c2=O)CN1C(=O)c1ccc(Br)c(C(F)(F)F)c1` (single isomer, unassigned) [Compound 99b], for which the EC50 lay within 50 to 500 nM.

As to `CC1Cn2c(c(C(=O)NCc3c(F)cccc3-c3ccncn3)n(-c3ccc(OC4CC4)cc3)c2=O)CN1C(=O)c1ccc(Br)c(Cl)c1` (single isomer, unassigned) [Compound 2b, (R*)-7-(4-bromo-3-chlorobenzoyl)-2-(4-cyclopropoxyphenyl)-N-(2-fluoro-6-(pyrimidin-4-yl)benzyl)-6-methyl-3-oxo-2,3,5,6,7,8-hexahydroimidazo[1,5-a]pyrazine-1-carboxamide], the EC50 was less than 50 nM.

For the compound `CC1Cn2c(c(C(=O)NCc3c(F)cccc3-c3cccc(N)n3)n(-c3ccc(OC4CC4)cc3)c2=O)CN1C(=O)c1ccc(Br)c(C(F)(F)F)c1` (single isomer, unassigned) [Compound 36b], the EC50 was less than 50 nM.

Still in this assay, the particulars now being: Hepatitis B virus, HepG2.117, 72 h, HBV DNA inhibition, 3 days incubation, read-out: EC50.
For the compound `CC1Cn2c(c(C(=O)NCc3ccccc3-c3ccccn3)n(-c3ccc(OC[C@H](O)C(F)(F)F)cc3)c2=O)CN1C(=O)c1ccc(Br)c(C(F)(F)F)c1` (single isomer, unassigned) [Compound 69a], the EC50 is less than 50 nM.

In the case of `CN[C@H](C)COc1ccc(-n2c(C(=O)NCc3ccccc3-c3ncccn3)c3n(c2=O)C[C@@H](C)N(C(=O)c2ccc(Br)c(C(F)(F)F)c2)C3)cc1` (single isomer, unassigned) [Compound 95a], the EC50 lay within 50 to 500 nM.

In the case of `CC1Cn2c(c(C(=O)NCc3ccccc3-c3ccncn3)n(-c3ccc(OC[C@@H](C)O)cc3)c2=O)CN1C(=O)c1ccc(Br)c(C(F)(F)F)c1` (stereo in doubt) [Compound 55a, (6R*)-7-[4-bromo-3-(trifluoromethyl)benzoyl]-2-{4-[(2R)-2-hydroxypropoxy]phenyl}-6-methyl-3-oxo-N-{[2-(pyrimidin-4-yl)phenyl]methyl}-5H,6H,8H-imidazo[1,5-a]pyrazine-1-carboxamide], the EC50 was in the range of 50 to 500 nM.

Consider `C[C@@H](O)Cn1ncc2cc(-n3c(C(=O)NCc4ccccc4-c4ccn(CC(F)(F)F)n4)c4n(c3=O)C[C@H](C)N(C(=O)c3ccc(Br)c(C(F)(F)F)c3)C4)ccc21` (mixture of isomers) [Compound 111b, (6SR)-7-[4-bromo-3-(trifluoromethyl)benzoyl]-2-[1-[(2R)-2-hydroxypropyl]indazol-5-yl]-6-methyl-3-oxo-N-[[2-[1-(2,2,2-trifluoroethyl)pyrazol-3-yl]phenyl]methyl]-6,8-dihydro-5H-imidazo[1,5-a]pyrazine-1-carboxamide], for which the EC50 is 50 to 500 nM.

On to `C[C@@H]1Cn2c(c(C(=O)NCc3ccccc3-c3ccncn3)n(-c3ccc(OC[C@@](C)(O)C(F)(F)F)cc3)c2=O)CN1C(=O)c1ccc(Br)c(C(F)(F)F)c1` (stereo in doubt) [Compound 82a, rac-(6R)-7-[4-bromo-3-(trifluoromethyl)benzoyl]-6-methyl-3-oxo-N-[(2-pyrimidin-4-ylphenyl)methyl]-2-[4-[rac-(2R)-3,3,3-trifluoro-2-hydroxy-2-methyl-propoxy]phenyl]-6,8-dihydro-5H-imidazo[1,5-a]pyrazine-1-carboxamide], for which the EC50 lay within 50 to 500 nM.

For the compound `CC1Cn2c(c(C(=O)NCc3c(F)cccc3-c3cccc(N)n3)n(-c3ccc(OC4CC4)cc3)c2=O)CN1C(=O)c1ccc(Br)c(C(F)(F)F)c1` (single isomer, unassigned) [Compound 36a], the EC50 is less than 50 nM.

For the compound `Cc1nc2cc(-n3c(C(=O)NCc4ccccc4-c4ccncn4)c4n(c3=O)CC(C)N(C(=O)c3ccc(Br)c(C(F)(F)F)c3)C4)ccc2o1` (single isomer, unassigned) [Compound 48a], the EC50 is 50 to 500 nM.

On to `C[C@H](COc1ccc(-n2c(C(=O)NCc3ccccc3-c3ncccn3)c3n(c2=O)C[C@H](C)N(C(=O)c2ccc(Br)c(C(F)(F)F)c2)C3)cc1)N1CCOCC1` (racemic) [Compound 96b, rac-(6S)-7-[4-bromo-3-(trifluoromethyl)benzoyl]-6-methyl-2-[4-(2-morpholinopropoxy)phenyl]-3-oxo-N-[(2-pyrimidin-2-ylphenyl)methyl]-6,8-dihydro-5H-imidazo[1,5-a]pyrazine-1-carboxamide], for which the EC50 is less than 50 nM.

In the case of `C[C@H]1Cn2c(c(C(=O)NCc3ccccc3-c3ccccn3)n(-c3ccc(OC[C@](C)(O)C(F)(F)F)cc3)c2=O)CN1C(=O)c1ccc(Br)c(C(F)(F)F)c1` (stereo in doubt) [Compound 90b, rac-(6S)-7-[4-bromo-3-(trifluoromethyl)benzoyl]-6-methyl-3-oxo-N-[[2-(2-pyridyl)phenyl]methyl]-2-[4-[rac-(2S)-3,3,3-trifluoro-2-hydroxy-2-methyl-propoxy]phenyl]-6,8-dihydro-5H-imidazo[1,5-a]pyrazine-1-carboxamide], the EC50 was in the range of 50 to 500 nM.

Turning to `C[C@@H]1Cn2c(c(C(=O)NCc3ccccc3-c3cccnn3)n(-c3ccc(OC[C@H](O)C(F)(F)F)cc3)c2=O)CN1C(=O)c1ccc(Br)c(C(F)(F)F)c1` (mixture of isomers) [Compound 67a, (6RS)-7-[4-bromo-3-(trifluoromethyl)benzoyl]-6-methyl-3-oxo-N-[(2-pyridazin-3-ylphenyl)methyl]-2-[4-[(2S)-3,3,3-trifluoro-2-hydroxy-propoxy]phenyl]-6,8-dihydro-5H-imidazo[1,5-a]pyrazine-1-carboxamide], the EC50 fell in the range of 50 to 500 nM.

Consider `CN[C@H](C)COc1ccc(-n2c(C(=O)NCc3ccccc3-c3ncccn3)c3n(c2=O)C[C@H](C)N(C(=O)c2ccc(Br)c(C(F)(F)F)c2)C3)cc1` (racemic) [Compound 95b, rac-(6S)-7-[4-bromo-3-(trifluoromethyl)benzoyl]-6-methyl-2-[4-[2-(methylamino)propoxy]phenyl]-3-oxo-N-[(2-pyrimidin-2-ylphenyl)methyl]-6,8-dihydro-5H-imidazo[1,5-a]pyrazine-1-carboxamide], for which the concentration for a half-maximal effect (EC50) lay in the range of 50 to 500 nM.

Take `C[C@H](COc1ccc(-n2c(C(=O)NCc3ccccc3-c3ncccn3)c3n(c2=O)C[C@H](C)N(C(=O)c2ccc(Br)c(C(F)(F)F)c2)C3)cc1)N(C)C` (single isomer, unassigned) [Compound 97b]: the EC50 was less than 50 nM.

As for `Cn1cnc2cc(-n3c(C(=O)NCc4ccccc4)c4n(c3=O)CCN(C(=O)c3ccc(Br)c(Cl)c3)C4)ccc21` [Compound 123, N-benzyl-7-(4-bromo-3-chloro-benzoyl)-2-(1-methylbenzimidazol-5-yl)-3-oxo-6,8-dihydro-5H-imidazo[1,5-a]pyrazine-1-carboxamide], the EC50 was 500 to 5000 nM.

With `Cc1nnc(-c2ccccc2CNC(=O)c2c3n(c(=O)n2-c2ccc4oc(C)nc4c2)CC(C)N(C(=O)c2ccc(Br)c(C(F)(F)F)c2)C3)o1` (single isomer, unassigned) [Compound 54a], the EC50 is less than 50 nM.

`C[C@@H]1Cn2c(c(C(=O)NCc3ccccc3-c3ncccn3)n(-c3ccc4c(cnn4C[C@H](O)C(F)(F)F)c3)c2=O)CN1C(=O)c1ccc(Br)c(C(F)(F)F)c1` (mixture of isomers) [Compound 102a, (6RS)-7-[4-bromo-3-(trifluoromethyl)benzoyl]-6-methyl-3-oxo-N-[(2-pyrimidin-2-ylphenyl)methyl]-2-[1-[(2S)-3,3,3-trifluoro-2-hydroxy-propyl]indazol-5-yl]-6,8-dihydro-5H-imidazo[1,5-a]pyrazine-1-carboxamide]: the EC50 fell in the range of 50 to 500 nM.
